“And” between values parts separate entries of the source, which are not always exact repeats. Equal entries are not always repeated. Where two headings read alike, the source gives them in different places.
Columns and labels:
S. aberdeen = test: Direct binding Salmonella assay (chemiluminescence immunosorbent); settings: detergent level not given
Method: (§1) After 5 hours of culture, a 2 ml aliquot of the sample was removed and SDS was added to a final concentration of 0.5% (w/v). The sample was heated to 100° C. for 5 minutes and allowed to cool. One hundred microlitres of each test sample was added directly to a well of a solid white 96 well high binding microtitre plate (Greiner Bio One) and incubated at 37° C. for 30 minutes. During incubation, the lipid A portion of the LPS binds to the surface of the plate via non-covalent hydrophobic interactions (FIG. 1a (1), FIG. 1b(1)).
(§2) The final concentration of antibody per well was 50 ng. The plate-bound sample (Salmonella LPS/core oligosaccharide) and antibody were incubated in the coated wells for 30 minutes as 37° C. Following incubation, plates were washed three times in wash buffer and pat dried prior to detection (FIG. 1a(2), FIG. 1b(2)).
(§3) When the anti-Salmonella is directly labelled with acridinium ester, plates were placed into a luminometer. 30 μl of trigger solution A and 60 μl of trigger solution B was added to each well of the microtitre plate to initiate light output from conjugated acridinium ester (FIG. 1a(3)). The luminometer settings were as follows:
(§4) When the anti-Salmonella antibody is not labelled, a second binding member, a goat anti-mouse IgG2b conjugate is used. Post column IgG2b was diluted 1:100 in a diluent comprising 3% (w/v) non-fat milk powder and 0.05% (v/v) Tween 20 and 100 ul of this solution was added to each well of the plate (FIG. 1b(3)). Following incubation at 37° C. for 60 minutes the plate was washed four times in wash buffer, dried and read as above (FIG. 1b(4)).
The wells of an assay plate are coated with standard concentrations of bacteria for 1 hour at 37° C. These standard concentrations are: 10^6, 10^5, 5×10^4, 2.5×10^4, 10^4 and 5×10^3 and blank wells containing 10^6 E. coli. The fractions to be tested are diluted 1:100 in assay buffer and […] is added to each well and incubated at 37° C. for 20 minutes. The wells are then read on the luminometer, as above.

L. innocua = test: as above; settings: 10^6 L. innocua; detergent level not given
Method: as §1, with “The” for “After 5 hours of culture, a 2 ml aliquot of the sample was removed and SDS was added to a final concentration of 0.5% (w/v). The”
as §2, §3, §4
Monoclonal antibody (1:100 dilution) was incubated with either Salmonella or Listeria to determine optimum incubation times:
Monoclonal antibody (1:200 dilution) was incubated with either Salmonella or Listeria to determine optimum incubation times: […]

E. coli = test: Growth response in tryptic soy broth with additive, A620 turbidity; type: cell-based; settings: for A620: E. coli
Salmonella = test: as above; type: cell-based, Salmonella aberdeen; settings: for A620: Salmonella
[1] = 10^1 bacteria (species not given)
[2] = 10^2 bacteria (species not given)
[3] = 10^3 bacteria (species not given)
[4] = 10^4 bacteria (species not given)
[5] = 10^5 bacteria (species not given)
[6] = 10^6 bacteria (species not given)
[7] = 5 mg/litre brilliant green, high absorbance values due to absorbance of Brilliant Green
[8] = 7 mg/litre brilliant green, high absorbance values due to absorbance of Brilliant Green
[9] = 10 mg/litre brilliant green, high absorbance values due to absorbance of Brilliant Green
[10] = 2 to 16 g/L, tryptic soy broth, 37° C., 18 hours

CCCCCCCCCCCCCCCC[N+](C)(C)C.[Br-] [CTAB, cetyltrimethyammonium bromide]
signal, release and detection of core oligosaccharide (S. aberdeen; [1]): 8901 relative light units
signal, release and detection of core oligosaccharide (S. aberdeen; [2]): 9746 relative light units
signal, release and detection of core oligosaccharide (S. aberdeen; [3]): 21541 relative light units
signal, release and detection of core oligosaccharide (S. aberdeen; [4]): 203215 relative light units
signal, release and detection of core oligosaccharide (S. aberdeen; [5]): 775871 relative light units
signal, release and detection of core oligosaccharide (S. aberdeen; [6]): 866920 relative light units
signal, release and detection of core oligosaccharide (L. innocua): 7593 relative light units

CCCCCCCCCCCCCCCC[N+](C)(C)C.[Cl-] [CTAC, cetyltrimethyammoniumchloride]
signal, release and detection of core oligosaccharide (S. aberdeen; [1]): 10321 relative light units
signal, release and detection of core oligosaccharide (S. aberdeen; [2]): 12485 relative light units
signal, release and detection of core oligosaccharide (S. aberdeen; [3]): 22758 relative light units
signal, release and detection of core oligosaccharide (S. aberdeen; [4]): 205093 relative light units
signal, release and detection of core oligosaccharide (S. aberdeen; [5]): 792108 relative light units
signal, release and detection of core oligosaccharide (S. aberdeen; [6]): 881712 relative light units
signal, release and detection of core oligosaccharide (L. innocua): 7892 relative light units

C[C@H](CCC(=O)[O-])[C@H]1CC[C@H]2[C@@H]3[C@H](O)C[C@@H]4C[C@H](O)CC[C@]4(C)[C@H]3C[C@H](O)[C@]12C.[Na+] [SODIUM CHOLATE]
signal, release and detection of core oligosaccharide (S. aberdeen; [1]): 8858 relative light units
signal, release and detection of core oligosaccharide (S. aberdeen; [2]): 8921 relative light units
signal, release and detection of core oligosaccharide (S. aberdeen; [3]): 12088 relative light units
signal, release and detection of core oligosaccharide (S. aberdeen; [4]): 67710 relative light units
signal, release and detection of core oligosaccharide (S. aberdeen; [5]): 529553 relative light units
signal, release and detection of core oligosaccharide (S. aberdeen; [6]): 917476 relative light units
signal, release and detection of core oligosaccharide (L. innocua): 7495 relative light units

CCN(CC)c1ccc(C(=C2C=CC(=[N+](CC)CC)C=C2)c2ccccc2)cc1 [brilliant green]
levels at which growth of E. coli is limited (E. coli): ≥ 0.0003 g/L
A620 (E. coli; 0.15 mg/litre brilliant green): 0.102 and 0.118
A620 (E. coli; 0.3 mg/litre brilliant green): 0.043 and 0.062
A620 (E. coli; 1 mg/litre brilliant green): 0.037 and 0.035
A620 (E. coli; 3 mg/litre brilliant green): 0.041 and 0.034
A620 (E. coli; [7]): 0.250 and 0.230
A620 (E. coli; [8]): 0.524 and 0.500
A620 (E. coli; [9]): 0.624 and 0.665
levels at which growth of Salmonella is limited (Salmonella): ≥ 0.3 mg/L
optimum level for growth of Salmonella with inhibition of competing bacteria (Salmonella; FIG. 4): 0.15 mg/L
A620 (Salmonella; 0.15 mg/litre brilliant green): 0.255 and 0.229
A620 (Salmonella; 0.3 mg/litre brilliant green): 0.046 and 0.041
A620 (Salmonella; 1 mg/litre brilliant green): 0.057 and 0.040
A620 (Salmonella; 3 mg/litre brilliant green): 0.072 and 0.061
A620 (Salmonella; [7]): 0.282 and 0.256
A620 (Salmonella; [8]): 0.606 and 0.569
A620 (Salmonella; [9]): 0.614 and 0.607

O=C([O-])CC(O)(CC(=O)[O-])C(=O)[O-].[Na+].[Na+].[Na+] [sodium citrate, tri-sodium citrate]
levels at which growth of E. coli is limited (E. coli): ≥ 5 g/L
growth response of Shigella over those of Staphylococcus and E. coli (Shigella flexneri; 15 g/L): significantly increased
effect on growth of Shigella (Shigella flexneri; FIG. 6): enhanced
levels at which growth of Staphylococcus is limited (Staphylococcus aureus): ≥ 5 g/L

O=S(=O)([O-])SSS(=O)(=O)[O-].[Na+].[Na+] [sodium tetrathionate]
levels that inhibit the growth of E. coli (E. coli): > 4 g/L
effect on growth of E. coli (E. coli; [10]): inhibited
A620 (E. coli; 4 g/litre tetrathionate): 0.096 and 0.104
A620 (E. coli; 8 g/litre tetrathionate): 0.078 and 0.073
A620 (E. coli; 12 g/litre tetrathionate): 0.053 and 0.048
A620 (E. coli; 15 g/litre tetrathionate): 0.011
A620 (E. coli; 20 g/litre tetrathionate): 0.015 and 0.018
A620 (E. coli; 25 g/litre tetrathionate): 0.023 and 0.022
A620 (E. coli; 30 g/litre tetrathionate): 0.021 and 0.020
levels at which growth of Salmonella is inhibited (Salmonella): above 16 g/L
effect on growth of Salmonella (Salmonella; [10]): un-affected or promoted
effect on the growth of Salmonella (Salmonella; 8 g/litre): clear enhancing effect
A620 (Salmonella; 4 g/litre tetrathionate): 0.187 and 0.179
A620 (Salmonella; 8 g/litre tetrathionate): 0.818 and 0.848
A620 (Salmonella; 12 g/litre tetrathionate): 0.226 and 0.270
A620 (Salmonella; 15 g/litre tetrathionate): 0.167 and 0.186
A620 (Salmonella; 20 g/litre tetrathionate): 0.150 and 0.139
A620 (Salmonella; 25 g/litre tetrathionate): 0.086 and 0.099
A620 (Salmonella; 30 g/litre tetrathionate): 0.059 and 0.073
levels in a culture media that significantly inhibit the growth of Salmonella spp (Salmonella; summary statement): above 20 g/L
effect on growth of Shigella (Shigella flexneri; [10]): inhibited
effect on growth of Staphylococcus (Staphylococcus aureus; [10]): inhibited

TRITON X-100
signal, release and detection of core oligosaccharide (S. aberdeen; [1]): 9981 relative light units
signal, release and detection of core oligosaccharide (S. aberdeen; [2]): 10494 relative light units
signal, release and detection of core oligosaccharide (S. aberdeen; [3]): 22570 relative light units
signal, release and detection of core oligosaccharide (S. aberdeen; [4]): 203602 relative light units
signal, release and detection of core oligosaccharide (S. aberdeen; [5]): 867745 relative light units
signal, release and detection of core oligosaccharide (S. aberdeen; [6]): 455886 relative light units
signal, release and detection of core oligosaccharide (L. innocua): 7076 relative light units

ammonium ferric citrate
levels at which growth of E. coli is limited (E. coli): ≥ 0.25 g/L
effect on growth of Salmonella (Salmonella; levels above 0.25 g/l, FIG. 5): unaffected
optimum level for growth of Shigella (Shigella flexneri; FIG. 5): 0.25 g/L
levels at which growth of Staphylococcus is limited (Staphylococcus aureus): ≥ 0.25 g/L
